The values that follow come from US8969565B2, “Imidazo[1,2-b]pyridazine-based compounds, compositions comprising them, and methods of their use” (Lexicon Pharmaceuticals, Inc., priority 2012, dated 2015).

By IC50 is commonly meant the concentration needed to halve the response being measured.

The assay deals with T1, AAK1 (Homo sapiens, UniProt Q2M2I8).
T1 construct: HA; expressed in transfected cells; host or cells: HEK293F
Briefly: HEK281 cell-based assay (phospho-mu2 Western blot in transfected HEK293F cells). Particulars: 3 hours incubation, read-out: CBA IC50. How it is done: HEK293F cells were cultured in media containing DMEM (Gibco, cat. #11965), 10% FBS (SAFC Biosciences, cat. #12103C), 1×GPS (glutamine, penicillin and streptomycin). On day one, cells were plated on a 10 cm dish so that they are ˜80% confluent at time of transfection. Roughly 12 million cells were in a 10 cm dish at time of transfection. On day two, each dish was transfected with 48 ug DNA and 144 ul Lipofectamine 2000 (Invitrogen, cat.#11668-019). The DNA was comprised of a mixture (per 10 cm dish) containing 3 ug AAK1/HA/pIRES (full length human, NCBI accession no. NP_055726.2), 45 μg Flag/AP2MI/pcDNA (full length human), and 1.5 ml OPTI-MEM. The Lipofectamine 2000 is made up of a mixture (per 10 cm dish) containing 144 μl Lipofectamine 2000 and 1.5 ml OPTI-MEM. Each mixture was transferred to individual 15 ml tubes and incubated at RT for 5 minutes, and then the two mixes were combined and incubated at RT for 20 minutes. Growth media was then aspirated from each 10 cm plate and replaced with 10 ml of DMEM+10% FBS (no GPS). Finally, 3 ml DNA/Lipofectamine mix was added to each 10 cm dish and mix gently followed by incubate of plate overnight at 37° C. and 5% CO2.
On day three, compounds were diluted in 100% DMSO at 1000× final concentration, followed by 3-fold serial dilutions for a total of 5 concentrations tested. Four compounds were tested per 10 cm dish. One ul of each compound dilution was then pipetted into a deep-well, 96-well plate, followed by addition of 500 μl DMEM+0.5% FBS into each well for a 2× final concentration of each compound. Cells were resuspended in a 10 cm dish by simple pipetting (HEK293 cells come off the plate that easy at this point) and then transferred to a 50 ml conical tube and pelleted by centrifugation at 1000 rpm for 5 min. Cell pellets were then resuspended in 2.75 ml DMEM+0.5% FBS per 10 cm dish and 100 μl of cell suspension transferred into each well of 96-well TC plate. Finally, 100 μl of 2× compound diluted in DMEM+0.5% FBS was then added into wells containing cell suspension for a 1× final concentration. Plates were then incubated at 37° C. and 5% CO2 for 3 hours followed by transferring of cell suspensions from each well into 12-tube PCR strips. The PCR strips were spun in a tip rack at 1000 rpm for 5 minutes to pellet cells and media was then removed by pipetting without disturbing the cell pellet.
To prepare for Western Blot analysis, cell pellets were resuspend in 40 ul 1×LDS-PAGE sample buffer (Invitrogen, cat.#NP0008)+2× Halt phophatase and protease inhibitor cocktail (Thermo Scientific, cat.#1861284), followed by sonicating each with microtip sonicator set at 5 for 8-10 seconds. Five ul of 10× NuPage Sample Reducing Agent (with 50 mM DTT) was to each sample followed by heat denaturing at 70 C for 10 min on PCR machine. A total of 10 μl per sample was loaded into each lane of a 4-20% Tris-Glycine Criterion 26-well gel (Biorad, cat.#345-0034) for the phospho-mu2 blot and 10 μl per lane in a 4-12% Bis-Tris (+MES buffer) NuPAGE 26-well gel (Invitrogen, cat.#WG1403BX10) for the mu2 blot. For controls, 2 ng of phospho-mu2 or 20 ng mu2/Flag proteins were loaded in the last well of each gel. After SDS-PAGE, samples on each gel were transferred to PVDF membrane using an iBlot and membranes were blocked for one hour in TBST+5% milk, followed by wash 3× for 5-10 min with TBST. Criterion gels were probed with rabbit anti-phospho-mu2 (1:5000; a rabbit polyclonal antibody produced by New England Peptide and affinity purified at Lexicon) in TBST+5% BSA, whereas, NuPAGE gels were probed with mouse anti-Flag (1:500; Sigma, cat.#F1804) in TBST+5% milk, and these primary antibodies were incubated overnight at 4° C. on a rocker.
(Immunoblotting shows a protein as a band on a membrane.)

T1 sequence (Q2M2I8 1-863 isoform Q2M2I8-2): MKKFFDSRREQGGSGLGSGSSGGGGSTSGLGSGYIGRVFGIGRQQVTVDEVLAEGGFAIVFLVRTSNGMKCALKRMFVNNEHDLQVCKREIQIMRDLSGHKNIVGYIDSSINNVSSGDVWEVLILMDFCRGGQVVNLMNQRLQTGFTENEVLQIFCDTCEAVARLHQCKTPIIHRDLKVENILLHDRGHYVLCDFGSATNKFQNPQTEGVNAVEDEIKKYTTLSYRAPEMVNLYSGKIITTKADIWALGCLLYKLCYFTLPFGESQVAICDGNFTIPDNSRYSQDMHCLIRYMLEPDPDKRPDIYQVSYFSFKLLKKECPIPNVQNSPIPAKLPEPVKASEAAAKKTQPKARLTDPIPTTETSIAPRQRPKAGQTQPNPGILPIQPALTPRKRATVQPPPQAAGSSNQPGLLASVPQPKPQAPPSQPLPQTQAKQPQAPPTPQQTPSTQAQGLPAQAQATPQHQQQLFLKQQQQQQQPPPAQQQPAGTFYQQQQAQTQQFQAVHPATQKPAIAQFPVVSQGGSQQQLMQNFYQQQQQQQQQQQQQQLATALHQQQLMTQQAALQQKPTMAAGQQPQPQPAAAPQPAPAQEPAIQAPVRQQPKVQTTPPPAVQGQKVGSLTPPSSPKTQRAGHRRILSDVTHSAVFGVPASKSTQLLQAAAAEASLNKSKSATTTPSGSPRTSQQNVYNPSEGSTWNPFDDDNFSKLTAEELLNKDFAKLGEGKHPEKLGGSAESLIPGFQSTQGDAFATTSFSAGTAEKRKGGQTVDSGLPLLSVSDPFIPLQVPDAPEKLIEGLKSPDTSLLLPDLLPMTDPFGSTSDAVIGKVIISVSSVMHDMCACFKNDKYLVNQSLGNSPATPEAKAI

With `CC(C)(C)N1CCN(CCNc2ccc3ncc(-c4ccc(CN)cc4)n3n2)C1=O` [1-(2-((3-(4-(aminomethyl)phenyl)imidazo[1,2-b]pyridazin-6-yl)amino)ethyl)-3-(tert-butyl)imidazolidin-2-one], the IC50 was not above 100 nM.

In the case of `COc1cnccc1-c1cnc2ccc(N3CCN(C(=O)CC(C)(C)C)CC3)nn12` [1-(4-(3-(3-methoxypyridin-4-yl)imidazo[1,2-b]pyridazin-6-yl)piperazin-1-yl)-3,3-dimethylbutan-1-one], the IC50 is not above 100 nM.

Turning to `CC(=O)c1ccc(-c2cnc3ccc(NCCN(C)c4ccccc4)nn23)s1` [1-(5-(6-((2-(methyl(phenyl)amino)ethyl)amino)imidazo[1,2-b]pyridazin-3-yl)thiophen-2-yl)ethanone], the IC50 was not above 100 nM.

As for `CNCCCNc1ccc2ncc(-c3ccc(C(C)=O)s3)n2n1` [1-(5-(6-((3-(methylamino)propyl)amino)imidazo[1,2-b]pyridazin-3-yl)thiophen-2-yl)ethanone], the IC50 is not above 1000 nM.

Take `COCCCNc1ccc2ncc(-c3ccc(C(C)=O)s3)n2n1` [1-(5-(6-((3-methoxypropyl)amino)imidazo[1,2-b]pyridazin-3-yl)thiophen-2-yl)ethanone]: the IC50 was not above 1000 nM.

In the case of `CCCCN(C)c1ccc2ncc(-c3ccc(C(C)=O)s3)n2n1` [1-(5-(6-(butyl(methyl)amino)imidazo[1,2-b]pyridazin-3-yl)thiophen-2-yl)ethanone], the IC50 is not above 100 nM.

As to `CC(=O)c1ccc(-c2cnc3ccc(NCC(C)C)nn23)s1` [1-(5-(6-(isobutylamino)imidazo[1,2-b]pyridazin-3-yl)thiophen-2-yl)ethanone], the IC50 was not above 1000 nM.

As to `CCCNc1ccc2ncc(-c3ccc(C(C)=O)s3)n2n1` [1-(5-(6-(propylamino)imidazo[1,2-b]pyridazin-3-yl)thiophen-2-yl)ethanone], the IC50 was not above 1000 nM.

For the molecule `COc1cnccc1-c1cnc2ccc(NCCN3CCN(C(C)(C)C)C3=O)nn12` [1-(tert-butyl)-3-(2-((3-(3-methoxypyridin-4-yl)imidazo[1,2-b]pyridazin-6-yl)amino)ethyl)imidazolidin-2-one], the half-maximal inhibitory concentration (IC50) is not above 100 nM.

Consider `COc1cnccc1-c1cnc2ccc(NCCN(C(=O)OCCF)C(C)C)nn12` [2-fluoroethyl isopropyl(2-((3-(3-methoxypyridin-4-yl)imidazo[1,2-b]pyridazin-6-yl)amino)ethyl)carbamate], for which the half-maximal inhibitory concentration (IC50) is not above 1000 nM.

In the case of `Cc1nc(C)c(-c2cnc3ccc(NCCOCC(C)C)nn23)s1` [3-(2,4-dimethylthiazol-5-yl)-N-(2-isobutoxyethyl)imidazo[1,2-b]pyridazin-6-amine], the IC50 was not above 1000 nM.

As for `CC(C)(C)OCCCNc1ccc2ncc(-c3ccnc(N)c3)n2n1` [3-(2-aminopyridin-4-yl)-N-(3-(tert-butoxy)propyl)imidazo[1,2-b]pyridazin-6-amine], the IC50 is not above 1000 nM.

In the case of `CCCCNc1ccc2ncc(-c3ccnc(N)c3)n2n1` [3-(2-aminopyridin-4-yl)-N-butylimidazo[1,2-b]pyridazin-6-amine], the IC50 is not above 1000 nM.

For `COc1ncccc1-c1cnc2ccc(NCC3CCOC3)nn12` (stereo not drawn) [3-(2-methoxypyridin-3-yl)-N-((tetrahydrofuran-3-yl)methyl)imidazo[1,2-b]pyridazin-6-amine], the IC50 was not above 1000 nM.

In the case of `COc1cnccc1-c1cnc2ccc(NCCCC(F)(F)F)nn12` [3-(3-methoxypyridin-4-yl)-N-(4,4,4-trifluorobutyl)imidazo[1,2-b]pyridazin-6-amine], the IC50 is not above 10 nM.

For `CCCCNc1ccc2ncc(-c3ccc(OCCN)cc3)n2n1` [3-(4-(2-aminoethoxy)phenyl)-N-butylimidazo[1,2-b]pyridazin-6-amine], the IC50 was not above 100 nM.

For the molecule `CC(C)(C)CCNc1ccc2ncc(-c3ccc(OCCCN)cc3)n2n1` [3-(4-(3-aminopropoxy)phenyl)-N-(3,3-dimethylbutyl)imidazo[1,2-b]pyridazin-6-amine], the IC50 is not above 100 nM.

Consider `NCCCOc1ccc(-c2cnc3ccc(NCCCc4ccccc4)nn23)cc1` [3-(4-(3-aminopropoxy)phenyl)-N-(3-phenylpropyl)imidazo[1,2-b]pyridazin-6-amine], for which the IC50 is not above 100 nM.

As for `CC(C)(C)CCNc1ccc2ncc(-c3ccc(COCCN)cc3)n2n1` [3-(4-((2-aminoethoxy)methyl)phenyl)-N-(3,3-dimethylbutyl)imidazo[1,2-b]pyridazin-6-amine], the IC50 is not above 100 nM.

Turning to `CCCCCNc1ccc2ncc(-c3ccc(CNCCOC)cc3)n2n1` [3-(4-(((2-methoxyethyl)amino)methyl)phenyl)-N-pentylimidazo[1,2-b]pyridazin-6-amine], the IC50 was not above 1000 nM.

On to `CCCCNc1ccc2ncc(-c3ccc(CN)cc3)n2n1` [3-(4-(Aminomethyl)phenyl)-N-butylimidazo[1,2-b]pyridazin-6-amine], for which the IC50 is not above 1000 nM.

Turning to `NCc1ccc(-c2cnc3ccc(NC4COC5(CCCC5)C4)nn23)cc1` (stereo not drawn) [3-(4-(aminomethyl)phenyl)-N-(1-oxaspiro[4.4]nonan-3-yl)imidazo[1,2-b]pyridazin-6-amine], the IC50 is not above 100 nM.

For the molecule `NCc1ccc(-c2cnc3ccc(NCCOC4CCCC4)nn23)cc1` [3-(4-(aminomethyl)phenyl)-N-(2-(cyclopentyloxy)ethyl)imidazo[1,2-b]pyridazin-6-amine], the IC50 was not above 100 nM.

For the molecule `CC(C)(C)COCCNc1ccc2ncc(-c3ccc(CN)cc3)n2n1` [3-(4-(aminomethyl)phenyl)-N-(2-(neopentyloxy)ethyl)imidazo[1,2-b]pyridazin-6-amine], the concentration for half-maximal inhibition (IC50) is not above 100 nM.

For the molecule `CC(C)(C)OCCNc1ccc2ncc(-c3ccc(CN)cc3)n2n1` [3-(4-(aminomethyl)phenyl)-N-(2-(tert-butoxy)ethyl)imidazo[1,2-b]pyridazin-6-amine], the IC50 is not above 100 nM.

In the case of `NCc1ccc(-c2cnc3ccc(NCCc4ccccc4OC(F)(F)F)nn23)cc1` [3-(4-(aminomethyl)phenyl)-N-(2-(trifluoromethoxy)phenethyl)imidazo[1,2-b]pyridazin-6-amine], the IC50 was not above 10 nM.

For `NCc1ccc(-c2cnc3ccc(NCCC4CCCCC4)nn23)cc1` [3-(4-(aminomethyl)phenyl)-N-(2-cyclohexylethyl)imidazo[1,2-b]pyridazin-6-amine], the concentration for half-maximal inhibition (IC50) is not above 100 nM.

For the molecule `NCc1ccc(-c2cnc3ccc(NCCC4CC4)nn23)cc1` [3-(4-(aminomethyl)phenyl)-N-(2-cyclopropylethyl)imidazo[1,2-b]pyridazin-6-amine], the IC50 was not above 1000 nM.

Turning to `CCOc1ccccc1CCNc1ccc2ncc(-c3ccc(CN)cc3)n2n1` [3-(4-(aminomethyl)phenyl)-N-(2-ethoxyphenethyl)imidazo[1,2-b]pyridazin-6-amine], the IC50 is not above 100 nM.

Turning to `NCc1ccc(-c2cnc3ccc(NCCc4ccccc4F)nn23)cc1` [3-(4-(aminomethyl)phenyl)-N-(2-fluorophenethyl)imidazo[1,2-b]pyridazin-6-amine], the IC50 is not above 100 nM.

Consider `CC(C)COCCNc1ccc2ncc(-c3ccc(CN)cc3)n2n1` [3-(4-(aminomethyl)phenyl)-N-(2-isobutoxyethyl)imidazo[1,2-b]pyridazin-6-amine], for which the IC50 was not above 100 nM.

Take `CC(C)OCCNc1ccc2ncc(-c3ccc(CN)cc3)n2n1` [3-(4-(aminomethyl)phenyl)-N-(2-isopropoxyethyl)imidazo[1,2-b]pyridazin-6-amine]: the IC50 was not above 100 nM.

Turning to `COc1ccccc1CCNc1ccc2ncc(-c3ccc(CN)cc3)n2n1` [3-(4-(aminomethyl)phenyl)-N-(2-methoxyphenethyl)imidazo[1,2-b]pyridazin-6-amine], the concentration for half-maximal inhibition (IC50) was not above 10 nM.
